Here are results for two molecules from article PMC8507260, “A2E-induced inflammation and angiogenesis in RPE cells in vitro are modulated by PPAR-α, -β/δ, -γ, and RXR antagonists and by norbixin” (Aging (Albany NY), 2021).

One assay relates to RXR. In words: Endogenous RXR transactivation, luciferase reporter in porcine RPE cells. The class given is cell-based. The method, then: (§1) Pig eyes were obtained from a local slaughterhouse and transported to the laboratory in ice-cold Ringer solution. After removal of the anterior segment of the eye, the vitreous and neural retina was separated from the RPE and removed. The eyecup was washed twice with phosphate buffer saline (PBS), filled with trypsin (0.25% in PBS) and incubated at 37°C for 1.5 h. RPE cells were harvested by gently pipetting, centrifuged to remove trypsin and re-suspended in Dulbecco’s Modified Eagle Medium (DMEM) supplemented with 20% (v/v) foetal-calf serum (DMEM20%FCS) and 0.1% gentamycin. Cells were seeded into 60 mm diameter Petri dishes, cultured in an atmosphere of 5% CO2/95% air at 37°C, and supplied with fresh medium after 24 hours and 4 days in vitro. For experiments aimed at measuring mRNA or protein expression in RPE, cells were trypsinized after one week in culture and transferred to 24-well or 6-well plates at a density of 1.5 × 10^5 cells/cm^2 in DMEM2%FCS. Norbixin or agonists were added to the medium 24 h after seeding, and antagonists were added to the medium 24 h later. A2E treatment was performed during 19 h before cellular sample preparation. All the drugs used in these experiments were prepared as stock solutions in DMSO.
After one week in culture, cells were trypsinized and transferred to a 96-well plate at a density of 6 × 10^4 cells/cm^2 in DMEM2%FCS. The next day, cells were transfected using the Cignal Reporter Assay Kits for PPAR, RXR, AP-1 and NF-κB, according to the manufacturer’s specifications. To measure the specific activation of PPAR isoforms, cells were also co-transfected with PPAR-α, PPAR-β/δ or PPAR-γ expression vectors. Transfection was performed with Lipofectamine and Plus Reagent in serum-free medium. 3 h after the transfection, the medium was replaced and treatments with the molecules to assay were performed. Luciferase activity was measured the next day using the Dual-Luciferase Reporter Assay System. The measurements were performed with a luminometer (Infinite M1000 from Tecan, Mannedorf, Switzerland). Firefly: Renilla activity ratios were calculated for each condition and ratios from transcription factor-responsive reporter transfections were divided by ratios from negative control transfections to obtain relative luciferase unit, as described by the manufacturer. At least 3 independent transfections were performed in triplicate for each condition.
On the technique in general: A reporter such as luciferase makes a cellular process visible.

The next assay concerns ERK. In words: ERK phosphorylation by western blot in primary porcine RPE cells. The class given is cell-based. The method, then: as §1, with “Norbixin or agonists were added to the medium 24 h after seeding, and antagonists were added to the medium 24 h later. A2E treatment was performed during 19 h before cellular sample preparation. All the drugs used in these experiments were prepared as stock solutions in DMSO.” left out
RPE samples were lysed in 20 mM Tris-HCl, 150 mM NaCl, 1 mM EDTA, 1% NP-40, pH 7.5 buffer containing a cocktail of protease and phosphatase inhibitors. […] The signal was developed using enhanced chemiluminescence reagents (ECL) prime detection kit, quantified by densitometry using Bio1D (Vilber Lourmat, Germany) and normalized by GAPDH levels. […]
(In general: A western blot detects proteins with antibodies after separation by electrophoresis.)

For a further assay, the system named is IL-8. As to the kind of experiment: IL-8 mRNA expression by quantitative RT-PCR in porcine RPE cells. The class given is cell-based. The procedure: as §1
Total RNA was extracted using the NucleoSpin® RNA kit according to manufacturer’s instructions. RT of 500 ng of RNA was performed using the SuperScript III Reverse Transcriptase following the manufacturer’s instructions. Five ng of cDNA were amplified using the SYBR GREEN real-time PCR method. PCR primers for target genes and housekeeping gene GAPDH were designed using Primer3Plus Bioinformatic software (Table 2). The RT-PCR using the StepOne Plus (Life Technologies, Carlsbad, CA, USA) consisted of incubation at 50°C for 5 min followed by 40 cycles of 95°C for 15 s and of 60°C for 1 min. The reaction was completed by a melt curve stage at 95°C for 15 s, 60°C for 1 min, 95°C for 15 s and a final step at 60°C for 15 s. The relative mRNA expression was calculated using the comparative threshold method (Ct-method) with GAPDH for normalization. All experimental conditions were processed in triplicate and each experiment was done at least 3 times.

For a further assay, the target named is T1, PPAR-γ (Homo sapiens, UniProt P37231).
T1 sequence (P37231 1-505): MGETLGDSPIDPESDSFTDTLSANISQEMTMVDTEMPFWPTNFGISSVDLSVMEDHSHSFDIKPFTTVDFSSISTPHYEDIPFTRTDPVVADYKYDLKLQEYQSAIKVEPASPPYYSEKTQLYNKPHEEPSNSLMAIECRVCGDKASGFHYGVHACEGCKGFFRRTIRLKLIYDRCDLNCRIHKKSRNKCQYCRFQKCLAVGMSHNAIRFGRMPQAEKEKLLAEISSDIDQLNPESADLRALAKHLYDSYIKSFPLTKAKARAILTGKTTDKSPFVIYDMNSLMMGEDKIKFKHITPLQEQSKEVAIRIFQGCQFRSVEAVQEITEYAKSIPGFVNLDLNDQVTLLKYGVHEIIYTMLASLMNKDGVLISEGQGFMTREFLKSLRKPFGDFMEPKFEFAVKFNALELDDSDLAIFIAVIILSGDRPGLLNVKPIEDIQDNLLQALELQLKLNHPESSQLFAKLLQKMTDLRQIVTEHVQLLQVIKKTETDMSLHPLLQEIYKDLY
As to the kind of experiment: Competition binding to PPAR-γ against [3H]rosiglitazone (Eurofins Cerep). As to conditions: competition with [3H]rosiglitazone. Further details: Eurofins Cerep (contract laboratory that ran the assay). From the text:
The binding and activity of norbixin on PPARs remains controversial, thus, firstly, we performed competition experiments in vitro between norbixin and [^3H] GW7647, an agonist of PPAR-α, and [^3H] rosiglitazone, an agonist of PPAR-γ. […] Secondly, we tested whether norbixin could induce the transactivation of PPAR-α, -β/δ or -γ in the context of RPE cells in vitro by co-transfecting porcine RPE cells with a plasmid expressing each of the full-length PPAR isoforms and a plasmid expressing luciferase under the control of the PPAR response element. […] Then, we wanted to determine if norbixin could modulate the transactivation of PPAR isoforms induced by specific agonists.
Binding studies of A2E and norbixin to RXR-α and PPAR-α and γ were performed in vitro by an external laboratory (Eurofins Cerep, Celle L’Evescault, France) through competition experiments between A2E or norbixin and [^3H]9-cis-retinoic acid as the natural ligand of RXR-α, [^3H]GW7647 an agonist of PPAR-α and [^3H]Rosiglitazone an agonist of PPAR-γ.

`CC(/C=C/C=C(C)/C=C/C(=O)O)=C\C=C\C=C(C)\C=C\C=C(C)\C=C\C(=O)O` (stereo in doubt) [norbixin, 9’-cis-norbixin]: the “inhibition of RXR transactivation induced by A2E” value in the assay on RXR (A2E 20 μM, NBX 20 μM, HX531 5 μM) is recorded as 49%. For the same molecule, the “inhibition of RXR transactivation induced by HX630” value with RXR (HX630 5 μM, NBX 20 μM) is listed as “did not inhibit”. Besides, in the assay on RXR (HX630 5 μM, NBX 20 μM, vs DMSO control), the “transactivation of RXRs by the compound alone” value is on record as “did not induce the transactivation”. In the assay on ERK (NBX 20 μM + A2E 30 μM), the “effect on ERK phosphorylation induced by A2E” value is “not significantly inhibited”. For the same molecule, in the assay on IL-8 (NBX 20 μM + A2E 30 μM), the “inhibition of IL-8 mRNA expression induced by A2E” value is recorded as “approximately 23 fold”. At PPAR-γ, this molecule registered a half-inhibitory concentration (IC50) of 1.9 µM and a Kd of 1 µM.
Turning to `CC(C=CC1=C(C)CCCC1(C)C)=CC=CC(C)=Cc1cc(C=CC=C(C)C=CC2=C(C)CCCC2(C)C)cc[n+]1CCO` [A2E, N-retinylidene-N-retinylethanolamine], the “minimal concentration inducing transactivation of endogenous RXRs” value in the assay on RXR (dose-response, porcine RPE cells) was found to be 20 µM. Also, the “effect of the compound alone on ERK phosphorylation” value with ERK (A2E 30 μM vs DMSO control) was “induced the phosphorylation”. For the same molecule, the “effect of the compound alone on IL-8 mRNA expression” value in the assay on IL-8 (vs DMSO control) is given as “induces the expression”. At PPAR-γ, the IC50 was 25.5 µM and binding was characterised by a dissociation constant (Kd) of 14 µM.

As usually defined, the IC50 is the concentration that inhibits the measured activity by half. For orientation: Kd means the equilibrium constant for the complex coming apart. A lower Kd goes with higher affinity.
